Source: article PMC11489721 (Communications Chemistry, 2024)
Counter-ions that a name gives are not always drawn. Like-named read-outs stand apart in the source and are kept apart here. One block for each compound: values may come before it.

Assays:
[1] = molecular target: T1, heterodimeric receptor (T1R2/T1R3), TMD2 binding site (Homo sapiens, UniProt Q7RTX0+Q8TE23); assay: Competition binding with [3H]-Perillartine as radioligand; conditions: for Competitive inhibition with perillartine: radioligand [3H]-Perillartine; for Ki (mM): radiolabeled ligand perillartine, TMD2 binding, Table 6
T1 sequence (Q8TE23 20-839): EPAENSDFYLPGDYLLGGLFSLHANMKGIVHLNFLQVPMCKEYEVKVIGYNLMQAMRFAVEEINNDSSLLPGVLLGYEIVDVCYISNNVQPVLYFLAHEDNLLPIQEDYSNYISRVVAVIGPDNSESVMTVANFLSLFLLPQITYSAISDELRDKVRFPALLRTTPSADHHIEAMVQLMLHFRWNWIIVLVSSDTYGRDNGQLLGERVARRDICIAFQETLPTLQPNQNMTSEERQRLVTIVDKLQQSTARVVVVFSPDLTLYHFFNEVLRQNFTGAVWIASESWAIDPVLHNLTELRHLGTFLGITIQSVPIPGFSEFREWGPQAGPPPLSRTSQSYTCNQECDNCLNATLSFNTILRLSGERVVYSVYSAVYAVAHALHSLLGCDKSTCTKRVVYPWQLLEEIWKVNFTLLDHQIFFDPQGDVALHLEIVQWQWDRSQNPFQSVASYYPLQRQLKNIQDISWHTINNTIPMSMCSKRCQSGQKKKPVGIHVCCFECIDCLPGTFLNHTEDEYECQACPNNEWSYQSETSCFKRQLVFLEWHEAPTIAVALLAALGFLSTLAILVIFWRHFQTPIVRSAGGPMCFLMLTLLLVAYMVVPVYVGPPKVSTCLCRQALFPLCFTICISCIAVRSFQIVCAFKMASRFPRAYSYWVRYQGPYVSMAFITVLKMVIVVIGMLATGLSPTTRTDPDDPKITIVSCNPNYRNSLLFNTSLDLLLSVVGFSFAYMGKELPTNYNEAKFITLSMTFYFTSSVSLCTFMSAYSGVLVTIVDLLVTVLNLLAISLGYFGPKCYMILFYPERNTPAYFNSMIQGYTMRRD
T1 sequence (Q7RTX0 21-852): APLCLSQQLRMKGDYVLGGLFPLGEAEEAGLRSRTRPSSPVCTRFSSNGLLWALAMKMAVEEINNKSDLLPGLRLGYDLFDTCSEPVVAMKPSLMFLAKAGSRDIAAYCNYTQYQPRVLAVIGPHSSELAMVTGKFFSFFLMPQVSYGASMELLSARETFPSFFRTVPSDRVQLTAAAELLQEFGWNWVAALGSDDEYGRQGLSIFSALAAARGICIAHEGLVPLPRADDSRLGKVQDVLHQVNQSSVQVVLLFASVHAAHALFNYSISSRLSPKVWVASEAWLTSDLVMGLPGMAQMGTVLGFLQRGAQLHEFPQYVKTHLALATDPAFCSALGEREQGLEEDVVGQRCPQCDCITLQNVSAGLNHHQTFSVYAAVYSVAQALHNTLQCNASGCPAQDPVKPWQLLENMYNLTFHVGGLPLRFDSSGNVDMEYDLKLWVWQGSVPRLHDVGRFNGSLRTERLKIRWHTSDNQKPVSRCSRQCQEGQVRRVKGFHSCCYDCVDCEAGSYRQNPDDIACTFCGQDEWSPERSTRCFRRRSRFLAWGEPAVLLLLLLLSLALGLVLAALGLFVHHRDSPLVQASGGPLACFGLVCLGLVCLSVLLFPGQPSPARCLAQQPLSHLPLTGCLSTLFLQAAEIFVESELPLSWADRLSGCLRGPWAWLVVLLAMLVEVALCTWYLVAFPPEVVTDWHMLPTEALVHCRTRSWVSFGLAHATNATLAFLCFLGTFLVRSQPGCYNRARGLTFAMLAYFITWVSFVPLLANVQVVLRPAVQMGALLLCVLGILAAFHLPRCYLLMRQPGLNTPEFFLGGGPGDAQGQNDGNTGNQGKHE

[2] = molecular target: T2, heterodimeric receptor (T1R2/T1R3), TMD3 binding site (Homo sapiens, UniProt Q7RTX0+Q8TE23); assay: Competition binding with [3H]-lactisole as radioligand; conditions: for Competitive inhibition with lactisole: radioligand [3H]-lactisole
T2 sequence (Q8TE23 20-839): T1 sequence (Q8TE23 20-839)
T2 sequence (Q7RTX0 21-852): T1 sequence (Q7RTX0 21-852)

[3] = molecular target: human T1R2/T1R3 sweet taste receptor; conditions: HEK293 stably expressing T1R2/T1R3, FLIPR calcium mobilization; cited from earlier work
[4] = tested on: human T1R2/T1R3 heterodimers; conditions: transiently transfected, fluorescent calcium biosensor; cited from earlier work
[5] = molecular target: extracellular amino-terminal domain (ATD) of human T1R2; conditions: circular dichroism; cited from earlier work
[6] = molecular target: human T1R2; conditions: human T1R2, intrinsic fluorescence; cited from earlier work
[7] = molecular target: T3, heterodimeric receptor (T1R2/T1R3), presumed VFD2 binding site (Homo sapiens, UniProt Q7RTX0+Q8TE23); assay: Competition binding with [3H]-Rebaudioside B as radioligand; conditions: for Competitive inhibition with RebB: radioligand [3H]-Rebaudioside B; for Ki (mM): radiolabeled ligand RebB, VFD2 binding, Table 5
T3 sequence (Q8TE23 20-839): T1 sequence (Q8TE23 20-839)
T3 sequence (Q7RTX0 21-852): T1 sequence (Q7RTX0 21-852)

[8] = molecular target: T4, heterodimeric receptor (T1R2/T1R3) (Homo sapiens, UniProt Q7RTX0+Q8TE23); assay: Effect of GTP and GDP on radioligand binding; conditions: for Inhibition of [3H]-Lactisole binding: radioligand [3H]-lactisole
T4 sequence (Q8TE23 20-839): T1 sequence (Q8TE23 20-839)
T4 sequence (Q7RTX0 21-852): T1 sequence (Q7RTX0 21-852)

[9] = cited from earlier work
[10] = molecular target: T5, heterodimeric receptor (T1R2/T1R3), presumed VFD2 site (Homo sapiens, UniProt Q7RTX0+Q8TE23); assay: Kinetic binding of [3H]-Rebaudioside B, taste bud cell membranes
T5 sequence (Q8TE23 20-839): T1 sequence (Q8TE23 20-839)
T5 sequence (Q7RTX0 21-852): T1 sequence (Q7RTX0 21-852)

[11] = tested on: bovine taste bud cells; conditions: cited from earlier work
[12] = molecular target: T6, heterodimeric receptor (T1R2/T1R3), VFD2 and VFD3 (Homo sapiens, UniProt Q7RTX0+Q8TE23); assay: Kinetic binding of [14C]-sucrose, taste bud cell membranes
T6 sequence (Q8TE23 20-839): T1 sequence (Q8TE23 20-839)
T6 sequence (Q7RTX0 21-852): T1 sequence (Q7RTX0 21-852)

[13] = molecular target: T7, human T1R2/T1R3 heterodimer sweet taste receptors (Homo sapiens, UniProt Q7RTX0+Q8TE23); assay: FLOWER label-free binding to stabilized receptor on microtoroid
T7 sequence (Q8TE23 20-839): T1 sequence (Q8TE23 20-839)
T7 sequence (Q7RTX0 21-852): T1 sequence (Q7RTX0 21-852)

[14] = molecular target: human sweet taste receptor; conditions: FLIPR assay; cited from earlier work
[15] = molecular target: human sweet taste receptor; conditions: DMR assay; cited from earlier work
[16] = molecular target: T8, heterodimeric receptor (T1R2/T1R3), TMD2 site (Homo sapiens, UniProt Q7RTX0+Q8TE23); assay: Kinetic binding of [3H]-Perillartine, taste bud cell membranes
T8 sequence (Q8TE23 20-839): T1 sequence (Q8TE23 20-839)
T8 sequence (Q7RTX0 21-852): T1 sequence (Q7RTX0 21-852)

[17] = from kinetic binding, ratio koff/kon
[18] = read-out: binding constant Kd, TMD3 open (+C20), 10 µM C20
[19] = read-out: binding constant Kd, TMD3 open (No C20)

Compound: CC1=CC(=O)NS(=O)(=O)O1 [AceK, Acesulfame K]
Competitive inhibition with perillartine [1]: high levels of inhibition
Competitive inhibition with lactisole [2]: do not compete
EC50 [3]: 125 µM
EC50 [4]: 213 µM
Kd [5]: 100 µM
Kd [6]: 164 µM
Competitive inhibition with RebB [7]: inhibited

Compound: C=C(C)[C@@H]1CC=C(/C=N/O)CC1 [Perillartine]
EC50 [3]: 1.45 µM
EC50 [4]: 2.54 µM
Kd [6]: 373 µM

Compound: Nc1nc2c(ncn2[C@@H]2O[C@H](COP(=O)(O)OP(=O)(O)O)[C@@H](O)[C@H]2O)c(=O)[nH]1 [GDP, guanosine diphosphate]
Inhibition of [3H]-Lactisole binding [8]: No inhibition
IC50 ([8]; read-out: IC50, inhibition of Rebaudioside B binding, radioligand [3H]-Rebaudioside B): 2150 µM

Compound: Rebaudioside B [RebB]
Sweetness at 300 ppm [9]: 5.20

Compound: OC[C@H]1OC(O)[C@H](O)[C@@H](O)[C@@H]1O (some centres unmarked) [glucose]
Kd [11]: 3400 µM

Compound: C=C1C[C@@]23CC[C@H]4[C@@](C)(CCC[C@@]4(C)C(=O)O[C@@H]4O[C@H](CO)[C@@H](O)[C@H](O)[C@H]4O)[C@@H]2CC[C@]1(O[C@@H]1O[C@H](CO)[C@@H](O)[C@H](O[C@@H]2O[C@H](CO)[C@@H](O)[C@H](O)[C@H]2O)[C@H]1O[C@@H]1O[C@H](CO)[C@@H](O)[C@H](O)[C@H]1O)C3 [RebA]
Sweetness at 300 ppm [9]: 5.90
EC50 [3]: 14.4 µM
EC50 [14]: 29 µM
EC50 [15]: 57 µM

Compound: OC[C@H]1O[C@@](CO)(O[C@H]2O[C@H](CO)[C@@H](O)[C@H](O)[C@H]2O)[C@@H](O)[C@@H]1O [sucrose]
Kd [11]: 1100 µM

Compound: N=C(N)NC(=O)c1nc(Cl)c(N)nc1N [Amiloride, amiloride HCL]
Ki (mM) [1]: Ambiguous
Competitive inhibition with perillartine [1]: did not show inhibition
Ki [7]: 1350 µM
Competitive inhibition with RebB [7]: positive inhibition

Continued, in another order:

kon ([10]; [3H]-Rebaudioside B radioligand, room temperature): 1.53 M⁻¹ s⁻¹
koff ([10]; dissociation by 1000-fold excess cold Rebaudioside B at 60 min): 0.008868 s⁻¹
Kd [10, 17]: 5800 µM
Compound: [^3H]-Rebaudioside B

kon ([12]; [14C]-sucrose radioligand): 0.251 M⁻¹ s⁻¹
koff ([12]; dissociation by excess cold sucrose at 60 min): 0.003105 s⁻¹
Kd [12, 17]: 12300 µM
Compound: OC[C@H]1O[C@@](CO)(O[C@H]2O[C@H](CO)[C@@H](O)[C@H](O)[C@H]2O)[C@@H](O)[C@@H]1O [[^14C]-sucrose, [^14C]-Sucrose]

Hill slope nH ([13]; TMD3 open (No C20)): 0.22
Kd [13, 18]: 0.046 nM
Kd [13, 19]: 2.8 nM
Compound: C=C1C[C@@]23CC[C@H]4[C@@](C)(CCC[C@@]4(C)C(=O)O[C@@H]4O[C@H](CO)[C@@H](O)[C@H](O)[C@H]4O[C@@H]4O[C@H](CO)[C@@H](O)[C@H](O)[C@H]4O)[C@@H]2CC[C@]1(O[C@@H]1O[C@H](CO)[C@@H](O)[C@H](O[C@@H]2O[C@H](CO)[C@@H](O)[C@H](O)[C@H]2O)[C@H]1O[C@@H]1O[C@H](CO)[C@@H](O)[C@H](O)[C@H]1O)C3 [RebD, Rebaudioside D]
Sweetness at 300 ppm [9]: 6.15

Ki (mM) [1]: Ambiguous
Ki ([2]; radiolabeled ligand lactisole, TMD3 binding, Table 4): 11800 µM
Competitive inhibition with lactisole [2]: positive inhibition
Hill slope nH ([13]; TMD2 open (+C20)): 0.75
Hill slope nH ([13]; TMD2 open (No C20)): 0.30
Hill slope nH ([13]; TMD3 open (No C20)): 0.55
Kd ([13]; read-out: binding constant Kd, TMD2 open (+C20), 10 µM C20): 0.28 nM
Kd [13, 18]: 2.6 nM
Kd [13, 19]: 22 nM
Ki (mM) [7]: Ambiguous
Competitive inhibition with RebB [7]: ambiguous binding inhibition
Compound: C=C1C[C@@]23CC[C@H]4[C@@](C)(CCC[C@@]4(C)C(=O)O[C@@H]4O[C@H](CO)[C@@H](O)[C@H](O[C@@H]5O[C@H](CO)[C@@H](O)[C@H](O)[C@H]5O)[C@H]4O[C@@H]4O[C@H](CO)[C@@H](O)[C@H](O)[C@H]4O)[C@@H]2CC[C@]1(O[C@@H]1O[C@H](CO)[C@@H](O)[C@H](O[C@@H]2O[C@H](CO)[C@@H](O)[C@H](O)[C@H]2O)[C@H]1O[C@@H]1O[C@H](CO)[C@@H](O)[C@H](O)[C@H]1O)C3 [RebM, Rebaudioside M]
Sweetness at 300 ppm [9]: 6.55
EC50 [3]: 29.5 µM

IC50 ([8]; IC50, inhibition of Rebaudioside B binding, radioligand [3H]-Rebaudioside B): 9220 µM
IC50 ([8]; IC50, inhibition of perillartine binding, radioligand [3H]-Perillartine): 13200 µM
Inhibition of [3H]-Lactisole binding [8]: No inhibition
Compound: Nc1nc2c(ncn2[C@@H]2O[C@H](COP(=O)(O)OP(=O)(O)OP(=O)(O)O)[C@@H](O)[C@H]2O)c(=O)[nH]1 [GTP, guanosine triphosphate]

kon ([16]; [3H]-Perillartine radioligand): 3071.47 M⁻¹ s⁻¹
koff ([16]; dissociation by excess cold Perillartine at 60 min): 0.008895 s⁻¹
Kd [16, 17]: 2.9 µM
Compound: [^3H]-Perillartine [[^3H]-Perrilartine]

Ki (mM) [1]: Ambiguous
Competitive inhibition with perillartine [1]: did not show inhibition
Competitive inhibition with lactisole [2]: do not compete
Ki (mM) [7]: Ambiguous
Competitive inhibition with RebB [7]: did not show strong inhibition
Compound: CC(C)Oc1ccc(NC(=S)NCc2ccc[nH]2)cc1 [S819, 1-((1H-pyrrol-2-yl)methyl)-3-(4-isopropoxyphenyl)thiourea]
EC50 [14]: 0.07 µM
EC50 [15]: 0.7 µM

Hill slope nH ([13]; TMD2 open (No C20)): 0.36
Hill slope nH ([13]; TMD3 open (No C20)): 0.20
Kd ([13]; binding constant Kd, TMD2 open (No C20)): 2400 nM
Kd ([13]; binding constant Kd, TMD3 open (+C20), 10 µM C20): 26 nM
Kd ([13]; binding constant Kd, TMD3 open (No C20)): 3000 nM
Compound: C=C1C[C@@]23CC[C@H]4[C@@](C)(CCC[C@@]4(C)C(=O)O[C@@H]4O[C@H](CO)[C@@H](O)[C@H](O)[C@H]4O)[C@@H]2CC[C@]1(O[C@@H]1O[C@H](CO)[C@@H](O)[C@H](O)[C@H]1O)C3 [Rubu, Rubusoside]
Sweetness at 300 ppm [9]: 3.87
